# Reference: article PMC5650142, “GPR40 partial agonists and AgoPAMs: Differentiating effects on glucose and hormonal secretions in the rodent” (PLoS ONE, 2017)
# “And” between values parts separate entries of the source, which are not always exact repeats. Equal entries are not always repeated.
# Tested on: GK rats
# Test: GK rat chronic efficacy (28 days: glucose, food intake, body weight, GLP-1, GIP, PYY, insulin, glucagon)
# Type: in vivo
# Set-up: Food Intake Over Time (Fig 3C) / Total Body Weight Change Over Time / Active GLP-1 Levels Over Time: unit not given here
# Details: for Total Body Weight Change Over Time / Active GLP-1 Levels Over Time / GIP Levels Over Time / PYY Levels Over Time / Plasma Insulin Over Time: GK rats; for GIP Levels Over Time / PYY Levels Over Time: in pg/mL (unit assumed)
# In short: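 Daily oral gavage for 28 days, AP1 or AP3 at 30 mg/kg in 0.5% methylcellulose; MK-8666 at 30 mg/kg in feed. Fed glucose, food intake and weight on days 10, 17, 23, 28; glucose, GLP-1, GIP, PYY after 6 h fast, 1 h post dose. Hormones by MSD immunoassay or bead panel.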
smiles,measurement,setting,value
Cc1cc(OCCCS(C)(=O)=O)cc(C)c1-c1cccc(COc2cc3c(cn2)[C@H]2[C@@H](C3)[C@@H]2C(=O)O)c1 [MK-8666],"Glucose Over time (S2 File, Fig 2A)","30 mpk, Day 0, individual animals",167 mg/dL and 165 mg/dL and 192 mg/dL and 168 mg/dL and 160 mg/dL and 197 mg/dL and 172 mg/dL and 183 mg/dL and 169 mg/dL and 161 mg/dL
same,Food Intake Over Time (Fig 3C),"30 mpk, Day 10",20.6389 and 19.3556 and 19.3778 and 21 and 18.9
same,"Glucose Over time (S2 File, Fig 2A)","30 mpk, Day 10, individual animals",128 mg/dl and 123 mg/dl and 142 mg/dl and 120 mg/dl and 139 mg/dl (2×) and 127 mg/dl and 130 mg/dl and 140 mg/dl and 115 mg/dl
same,Food Intake Over Time (Fig 3C),"30 mpk, Day 17",18.0071 and 18.5429 and 17.1786 and 18.0357 and 16.8714
same,"Glucose Over time (S2 File, Fig 2A)","30 mpk, Day 17, individual animals",130 mg/dL and 155 mg/dL and 159 mg/dL and 140 mg/dL and 132 mg/dL and 137 mg/dL and 120 mg/dL and 138 mg/dL and 110 mg/dL and 102 mg/dL
same,Food Intake Over Time (Fig 3C),"30 mpk, Day 23",18.6833 and 18.8833 and 18.4167 and 19.5083 and 18.1917
same,"Glucose Over time (S2 File, Fig 2A)","30 mpk, Day 23, individual animals",129 mg/dL and 132 mg/dL and 148 mg/dL and 138 mg/dL and 131 mg/dL and 124 mg/dL and 143 mg/dL and 144 mg/dL and 119 mg/dL and 122 mg/dL
same,Food Intake Over Time (Fig 3C),"30 mpk, Day 28",18.66 and 18.67 and 17.38 and 21.2 and 17.95
same,"Glucose Over time (S2 File, Fig 2A)","30 mpk, Day 28, individual animals",130 mg/dL and 128 mg/dL and 147 mg/dL and 122 mg/dL and 143 mg/dL and 136 mg/dL and 123 mg/dL and 135 mg/dL and 131 mg/dL and 116 mg/dL
same,Fasted glucose on day 28 (Fig 3B),"30 mpk, day 28, fasted, individual animals",119 and 118 and 107 and 100 and 94 and 104 and 124 and 102 and 96 and 105
same,Fed glucose on day 28 (Fig 3B),"30 mpk, day 28, fed, individual animals",123 and 135 and 131 and 116 and 130 and 128 and 147 and 122 and 143 and 136
same,"gut hormones (total and active GLP-1, GIP, PYY)","GK rat, 30 mg/kg, 4 weeks of treatment",no effect
same,Plasma Glucagon,"GK rat, 30 mg/kg, 28 days",trend of increasing glucagon on day 28
same,body weight,"GK rat, 30 mg/kg, 28 days",no effect
same,fed blood glucose vs vehicle controls,"GK rat, 30 mg/kg, 28 days, days 10–28",significant effect on day 28 only
same,Total Body Weight Change Over Time,"30 mpk, Day 0, individual animals (Fig 3D)",0
same,Active GLP-1 Levels Over Time,"30 mpk, Day 0, individual animals (Fig 4B), 30 mg/kg",1.901 and 1.26 and 2.116 and 3.51 and 2.184 and 0.8674 and 1.257 and 2.71 and 1.494 and 1.111
same,GIP Levels Over Time,"30 mpk, Day 0, individual animals (Fig 4C), 30 mg/kg",12.65 and 5.7 and 68.06 and 68.73 and 44.75 and 71.88 and 53.28 and 113.97 and 32.85 and 33.08
same,PYY Levels Over Time,"30 mpk, Day 0, individual animals (Fig 4D), 30 mg/kg",104.9 and 81.92 and 88.3 and 95.99 and 52.32 and 50.41 and 79.99 and 158.3 and 57.72 and 25.52
same,Plasma Insulin Over Time,"30 mpk, Day 0, individual animals (Fig 5A), 30 mg/kg",0.7825 ng/mL and 1.015 ng/mL and 2.348 ng/mL and 1.621 ng/mL and 2.16 ng/mL and 2.5584 ng/mL and 2.141 ng/mL and 1.201 ng/mL and 2.632 ng/mL and 2.493 ng/mL
same,Total Body Weight Change Over Time,"30 mpk, Day 10, individual animals (Fig 3D), 30 mg/kg",20 and 26 and 18 and 13 and 22 and 3 and 11 and 21 and 12 and 4
same,Active GLP-1 Levels Over Time,"30 mpk, Day 10, individual animals (Fig 4B), 30 mg/kg",1.599 and 1.212 and 2.275 and 1.828 and 2.945 and 2.154 and 1.327 and 1.669 and 1.343 and 1.536
same,GIP Levels Over Time,"30 mpk, Day 10, individual animals (Fig 4C), 30 mg/kg",39.32 and 74.04 and 79.4 and 80.59 and 90.86 and 47.57 and 50.25 and 47.43 and 58.38 and 34.5
same,PYY Levels Over Time,"30 mpk, Day 10, individual animals (Fig 4D), 30 mg/kg",68.18 and 84.22 and 84.94 and 98.89 and 97.3 and 93.71 and 80.17 and 75.96 and 87.42 and 74.37
same,Plasma Insulin Over Time,"30 mpk, Day 10, individual animals (Fig 5A), 30 mg/kg",1.605 ng/mL and 1.432 ng/mL and 1.588 ng/mL and 2.061 ng/mL and 1.507 ng/mL and 2.521 ng/mL and 2.104 ng/mL and 0.5711 ng/mL and 1.866 ng/mL and 2.359 ng/mL
same,Total Body Weight Change Over Time,"30 mpk, Day 17, individual animals (Fig 3D), 30 mg/kg",34 (2×) and 41 and 29 and 32 (2×) and 11 and 22 (2×) and 9
same,Active GLP-1 Levels Over Time,"30 mpk, Day 17, individual animals (Fig 4B), 30 mg/kg",0.86 and 0.3 and 1.09 and 0.6 and 0.76 and 1.16 and 0.79 and 0.57 (2×) and 1.44
same,GIP Levels Over Time,"30 mpk, Day 17, individual animals (Fig 4C), 30 mg/kg",72.64 and 104.54 and 131.52 and 71.84 and 86.95 and 58.88 and 85.41 and 17.08 and 86.39 and 75.71
same,PYY Levels Over Time,"30 mpk, Day 17, individual animals (Fig 4D), 30 mg/kg",84.67 and 106.51 and 99.04 and 75.86 and 81.98 and 124.9 and 74.42 and 49.36 and 77.72 and 64.96
same,Plasma Insulin Over Time,"30 mpk, Day 17, individual animals (Fig 5A), 30 mg/kg",2.096 ng/mL and 1.971 ng/mL and 2.299 ng/mL and 1.835 ng/mL and 1.8388 ng/mL and 1.142 ng/mL and 2.593 ng/mL and 0.8411 ng/mL and 2.087 ng/mL and 1.846 ng/mL
same,Total Body Weight Change Over Time,"30 mpk, Day 23, individual animals (Fig 3D), 30 mg/kg",40 and 50 and 44 and 31 (2×) and 12 and 29 and 38 and 27 and 17
same,Total Body Weight Change Over Time,"30 mpk, Day 28, individual animals (Fig 3D), 30 mg/kg",42 (2×) and 59 and 53 and 39 and 16 and 38 and 47 and 36 and 23
same,Active GLP-1 Levels Over Time,"30 mpk, Day 28, individual animals (Fig 4B), 30 mg/kg",1.155 and 1.013 and 1.22 and 0.9448 and 0.9241 and 0.9389 and 0.7791 and 1.439 and 1.063 and 0.9152
same,GIP Levels Over Time,"30 mpk, Day 28, individual animals (Fig 4C), 30 mg/kg",17.53 and 7.25 and 46.24 and 76.52 and 12.03 and 22.4 and 15.13 and 16.8 and 5.84
same,PYY Levels Over Time,"30 mpk, Day 28, individual animals (Fig 4D), 30 mg/kg",66.63 and 94.86 and 108.27 and 72.37 and 63.96 and 49.91 and 49.72 and 83.74 and 62.98 and 45.13
same,Plasma Insulin Over Time,"30 mpk, Day 28, individual animals (Fig 5A), 30 mg/kg",1.012 ng/mL and 1.26 ng/mL and 1.45 ng/mL and 2.851 ng/mL and 1.138 ng/mL and 1.638 ng/mL and 1.554 ng/mL and 1.1554 ng/mL and 1.58 ng/mL and 1.305 ng/mL
